Legend:
pancreatic cancer = conditions: 1250 mg/m^2 twice daily for 2 weeks followed by 1-week rest, first line; cited from earlier work
[1] = tested on: metastatic pancreatic cancer; conditions: first line; cited from earlier work
[2] = tested on: germline BRCA-mutated metastatic pancreatic cancer; conditions: cited from earlier work
CYP1A2 = molecular target: T1, CYP1A2 (Homo sapiens, UniProt P05177); assay: in vitro CYP inhibition; format: in vitro ADME
T1 sequence (P05177 1-516): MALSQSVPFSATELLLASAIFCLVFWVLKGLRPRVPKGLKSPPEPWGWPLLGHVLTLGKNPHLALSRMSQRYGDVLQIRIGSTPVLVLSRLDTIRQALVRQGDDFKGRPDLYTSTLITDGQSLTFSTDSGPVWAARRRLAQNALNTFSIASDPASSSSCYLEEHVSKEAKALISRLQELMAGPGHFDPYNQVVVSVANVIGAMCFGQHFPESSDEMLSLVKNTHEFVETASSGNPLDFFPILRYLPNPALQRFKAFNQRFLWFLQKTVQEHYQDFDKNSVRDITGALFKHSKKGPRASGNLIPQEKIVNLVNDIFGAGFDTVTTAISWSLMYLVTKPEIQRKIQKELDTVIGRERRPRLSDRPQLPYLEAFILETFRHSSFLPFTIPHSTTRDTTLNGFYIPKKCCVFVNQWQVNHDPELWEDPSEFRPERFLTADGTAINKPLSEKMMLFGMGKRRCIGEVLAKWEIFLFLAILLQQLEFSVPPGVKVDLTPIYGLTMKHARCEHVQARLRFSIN
From the text: (§1) Concomitant use of drugs that are moderate or strong inhibitors or inducers of these CYP enzymes should be avoided. […] Concomitant use of drugs that are substrates of CYP2D6 and have a narrow therapeutic index is not advised.

CYP2C19 = CYP2C19 (Homo sapiens, UniProt P33261); assay: in vitro CYP inhibition; format: in vitro ADME
From the text: as §1

CYP2C9 = CYP2C9 (Homo sapiens, UniProt P11712); assay: in vitro CYP inhibition; format: in vitro ADME
From the text: as §1

CYP2D6 [3] = molecular target: T2, CYP2D6 (Homo sapiens, UniProt P10635); assay: in vitro CYP inhibition; format: in vitro ADME
From the text: as §1

CYP3A4 = CYP3A4 (Homo sapiens, UniProt P08684); assay: in vitro CYP inhibition; format: in vitro ADME
From the text: as §1

CYP2D6 [4] = molecular target: T2, CYP2D6; assay: nonclinical CYP substrate studies; format: in vitro ADME
From the text: as §1

CYP3A = assay: nonclinical CYP substrate studies; format: in vitro ADME
From the text: as §1

[5] = Phase 1/2 study of ivaltinostat (IV) in combination with gemcitabine and erlotinib
Description: Ivaltinostat was administered on Days 1, 8 and 15 of a 28-day cycle in combination with gemcitabine (1000 mg/m^2; IV on Days 1, 8, and 15) and erlotinib (100 mg orally QD).
In the Phase 2 component of the study, 24 subjects received ivaltinostat at a dose level of 250 mg/m^2 in combination of gemcitabine (1000 mg/m^2; IV on Days 1, 8, and 15) and erlotinib (100 mg orally QD). In Phase 2, planned treatment duration was up to 6 cycles, but treatment could continue beyond 6 cycles if there was no progression of disease, at the discretion of the subject and treating physician.

[6] = Phase 2, 250 mg/m^2 plus gemcitabine and erlotinib
[7] = Phase 2, 16 evaluable subjects, plus gemcitabine and erlotinib
[8] = Phase 2, 16 subjects with at least one tumor evaluation, plus gemcitabine and erlotinib

T2 sequence (P10635 whole entry): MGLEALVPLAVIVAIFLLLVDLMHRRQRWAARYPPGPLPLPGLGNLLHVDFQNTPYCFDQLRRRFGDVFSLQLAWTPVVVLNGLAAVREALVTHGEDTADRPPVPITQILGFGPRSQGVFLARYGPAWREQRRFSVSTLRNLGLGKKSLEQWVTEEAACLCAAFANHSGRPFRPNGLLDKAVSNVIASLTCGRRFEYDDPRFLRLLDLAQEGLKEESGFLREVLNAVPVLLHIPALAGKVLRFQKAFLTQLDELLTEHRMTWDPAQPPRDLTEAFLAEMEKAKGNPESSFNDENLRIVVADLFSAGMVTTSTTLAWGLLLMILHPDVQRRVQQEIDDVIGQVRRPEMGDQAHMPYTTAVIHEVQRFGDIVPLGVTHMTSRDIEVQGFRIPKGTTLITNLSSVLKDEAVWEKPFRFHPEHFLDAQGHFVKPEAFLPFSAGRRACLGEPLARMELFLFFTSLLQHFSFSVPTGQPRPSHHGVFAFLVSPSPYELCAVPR
Chain of CYP2C19 (P33261 whole entry): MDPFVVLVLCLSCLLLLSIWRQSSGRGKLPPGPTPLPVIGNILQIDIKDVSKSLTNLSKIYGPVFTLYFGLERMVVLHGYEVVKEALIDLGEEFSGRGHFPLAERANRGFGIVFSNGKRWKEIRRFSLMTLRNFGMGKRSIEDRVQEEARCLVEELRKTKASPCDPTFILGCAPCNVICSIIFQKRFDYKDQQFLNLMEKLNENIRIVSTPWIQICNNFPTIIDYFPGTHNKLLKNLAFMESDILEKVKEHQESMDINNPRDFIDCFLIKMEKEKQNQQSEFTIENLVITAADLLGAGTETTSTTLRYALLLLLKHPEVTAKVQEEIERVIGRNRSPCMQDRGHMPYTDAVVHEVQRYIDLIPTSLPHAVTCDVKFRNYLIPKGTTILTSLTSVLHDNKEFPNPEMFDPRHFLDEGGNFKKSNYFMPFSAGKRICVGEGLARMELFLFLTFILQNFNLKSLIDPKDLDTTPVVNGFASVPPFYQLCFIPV
Chain of CYP3A4 (P08684 whole entry): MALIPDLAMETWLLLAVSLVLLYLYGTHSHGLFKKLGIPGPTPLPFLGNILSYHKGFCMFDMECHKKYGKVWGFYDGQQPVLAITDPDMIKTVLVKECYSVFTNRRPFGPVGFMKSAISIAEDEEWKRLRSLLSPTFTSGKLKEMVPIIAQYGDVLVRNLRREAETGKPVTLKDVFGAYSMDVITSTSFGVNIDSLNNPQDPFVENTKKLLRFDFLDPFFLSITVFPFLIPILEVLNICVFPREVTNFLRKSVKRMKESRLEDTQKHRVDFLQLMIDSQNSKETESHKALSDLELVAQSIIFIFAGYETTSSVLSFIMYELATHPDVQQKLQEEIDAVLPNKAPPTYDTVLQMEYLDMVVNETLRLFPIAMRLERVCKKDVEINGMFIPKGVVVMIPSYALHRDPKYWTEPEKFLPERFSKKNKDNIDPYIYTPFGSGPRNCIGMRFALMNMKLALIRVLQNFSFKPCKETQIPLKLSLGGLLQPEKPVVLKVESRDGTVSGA
Chain of CYP2C9 (P11712 whole entry): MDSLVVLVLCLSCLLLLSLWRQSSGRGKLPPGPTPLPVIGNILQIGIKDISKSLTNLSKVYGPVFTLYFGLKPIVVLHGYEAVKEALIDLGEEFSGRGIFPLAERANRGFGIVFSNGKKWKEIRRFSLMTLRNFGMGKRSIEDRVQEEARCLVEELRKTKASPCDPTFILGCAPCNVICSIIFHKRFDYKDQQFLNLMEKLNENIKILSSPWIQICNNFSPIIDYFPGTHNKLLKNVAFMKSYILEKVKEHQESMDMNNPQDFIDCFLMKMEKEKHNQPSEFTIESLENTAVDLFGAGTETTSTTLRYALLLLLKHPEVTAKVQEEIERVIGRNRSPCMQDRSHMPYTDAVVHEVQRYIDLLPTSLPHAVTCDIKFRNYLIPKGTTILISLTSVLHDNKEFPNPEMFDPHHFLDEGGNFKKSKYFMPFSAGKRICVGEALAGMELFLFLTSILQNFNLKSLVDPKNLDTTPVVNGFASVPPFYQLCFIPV

## CCCCCOC(=O)Nc1nc(=O)n([C@@H]2O[C@H](C)[C@@H](O)[C@H]2O)cc1F [Capecitabine, capecitabine]
Pancreatic cancer
  efficacy and tolerability of dose schedule: effective and tolerable

## FOLFIRINOX
[1]
  median progression-free survival (PFS): 6.4 months
  overall survival (OS): 11.1 months

## O=C(c1cc(Cc2n[nH]c(=O)c3ccccc23)ccc1F)N1CCN(C(=O)C2CC2)CC1 [olaparib]
[2]; gBRCA patients after ≥16 weeks of platinum-based therapy, vs. placebo
  median PFS: 7.4 months
[2]; gBRCA patients, p=0.004
  HR (PFS vs. placebo): 0.53

## CN(C)CCCNC(=O)/C(=C/CCCCC(=O)NO)COc1cccc2ccccc12.O=P(O)(O)O [ivaltinostat, (E)-N1-(3-(dimethylamino)propyl)-N8-hydroxy-2-((naphthalen-1-yloxy)methyl)oct-2-enediamide phosphate]
CYP1A2
  IC50: > 10 µM
CYP2C19
  IC50: > 90 µM
CYP2C9
  IC50: > 90 µM
CYP2D6 [3]
  IC50: 5.5 µM
CYP3A4
  IC50: > 10 µM
CYP2D6 [4]
  substrate for CYP2D6: substrate
CYP3A
  substrate for CYP3A: substrate
[5]; [6]
  anemia, grade 3 treatment-related AE frequency: 17%
  anemia, grade 4 treatment-related AE frequency: 0%
  deaths related to SAEs considered related to the investigational drugs: no deaths
  discontinuation of study drug due to an AE: No subjects discontinued
  neutrophil count decreased, grade 3 treatment-related AE frequency: 13%
  neutrophil count decreased, grade 4 treatment-related AE frequency: 17%
  platelet count decreased, grade 3 treatment-related AE frequency: 17%
  platelet count decreased, grade 4 treatment-related AE frequency: 13%
  tolerability: generally well tolerated
[5]; [7]
  partial responses: 25%
  partial responses, number of patients: 4 patients
  stable disease: 68.8%
  stable disease, number of patients: 11 patients
[5]; [8]
  disease control rate (DCR): 93.8%
  objective response rate (ORR): 25.0%

— patent publication US20250152526A1, “USES OF IVALTINOSTAT FOR TREATING PANCREATIC CANCER” (CG PHARMACEUTICALS, INC, priority 2022, published 2025)
